What all share (format): biochemical
One assay addresses T1, PRMT1 (Homo sapiens, UniProt Q99873).
T1 construct: made in house
The experiment in a line: SAHH-coupled fluorescence assay, inhibition of PRMT1. As to the method: (§1) A fluorescence-based SAHH-coupled assay was applied to study the inhibition activity of all synthesized compounds on PRMT 1 and 3.
(§2) The PRMT1 methylation assay was performed under the following conditions in a final well volume of 100 μL: 2.5 mM HEPES (pH=7.0), 25 mM NaCl, 25 μM EDTA, 50 μM TCEP, 0.01% Triton X-100, 5 μM SAHH, 0.1 μM PRMT1, 10 μM AdoMet, and 10 μM ThioGlo4. […] The fluorescence signal was monitored on a BMG CLARIOstar microplate reader with excitation at 400 nm and emission at 465 nm for 15 min. Data were processed using GraphPad Prism software 8.0.
(§3) Next, the inhibition activity of the library was investigated for five PRMT members from type I PRMTs.
as §2, with “A fluorescence-based SAHH-coupled assay was applied to determine the inhibition activity of all synthesized compounds on PRMT 1 and 3. The PRMT1” for “The PRMT1”, “software 8.0. All experiments were performed in duplicate.” for “software 8.0.”

For the next assay, the target named is PRMT6 (Homo sapiens, UniProt Q96LA8). Kind of assay: radioactive assay (Reaction Biology Corp.), inhibition of PRMT6. As to the method: as §3
(§4) The PRMT 4, 6 and 8 methylation assays were performed by Reaction Biology corp.

The next assay has as its target PRMT8 (Homo sapiens, UniProt Q9NR22). Kind of assay: radioactive assay (Reaction Biology Corp.), inhibition of PRMT8. As to the method: as §3, §4
A further assay addresses PRMT3 (Homo sapiens, UniProt O60678). Kind of assay: SAHH-coupled fluorescence assay, inhibition of PRMT3. Details: PRMT3 (residues 211-531) was cloned into the pET28a-MHL expression vector; tag of the pET28a-MHL vector (not described); made in house; host or cells: Escherichia coli BL21(DE3). As for the experimental part:
as §1
The PRMT3 methylation assay was performed under the following conditions in a final well volume of 100 μL: 20 mM Tris (pH=7.5), 0.01% Triton X-100, 5 μM SAHH, 0.25 μM PRMT3, 30 μM AdoMet, and 15 μM ThioGlo4. […] Fluorescence was monitored on a BMG CLARIOstar microplate reader with excitation 380 nm and emission 505 nm. Data were processed by using GraphPad Prism software 8.0. All experiments were performed in duplicate.
as §3
The PRMT3 methylation assay was performed under the following conditions in a final well volume of 100 μL: 20 mM Tris (pH=7.5), 0.01% Triton X-100, 5 μM SAHH, 0.25 μM PRMT3, 30 μM AdoMet, and 15 μM ThioGlo4. […] Fluorescence was monitored on a BMG CLARIOstar microplate reader with excitation 380 nm and emission 505 nm. Data were processed by using GraphPad Prism software 8.0.

Another assay addresses T2, PRMT4 (Homo sapiens, UniProt Q86X55).
T2 sequence (Q86X55 1-608): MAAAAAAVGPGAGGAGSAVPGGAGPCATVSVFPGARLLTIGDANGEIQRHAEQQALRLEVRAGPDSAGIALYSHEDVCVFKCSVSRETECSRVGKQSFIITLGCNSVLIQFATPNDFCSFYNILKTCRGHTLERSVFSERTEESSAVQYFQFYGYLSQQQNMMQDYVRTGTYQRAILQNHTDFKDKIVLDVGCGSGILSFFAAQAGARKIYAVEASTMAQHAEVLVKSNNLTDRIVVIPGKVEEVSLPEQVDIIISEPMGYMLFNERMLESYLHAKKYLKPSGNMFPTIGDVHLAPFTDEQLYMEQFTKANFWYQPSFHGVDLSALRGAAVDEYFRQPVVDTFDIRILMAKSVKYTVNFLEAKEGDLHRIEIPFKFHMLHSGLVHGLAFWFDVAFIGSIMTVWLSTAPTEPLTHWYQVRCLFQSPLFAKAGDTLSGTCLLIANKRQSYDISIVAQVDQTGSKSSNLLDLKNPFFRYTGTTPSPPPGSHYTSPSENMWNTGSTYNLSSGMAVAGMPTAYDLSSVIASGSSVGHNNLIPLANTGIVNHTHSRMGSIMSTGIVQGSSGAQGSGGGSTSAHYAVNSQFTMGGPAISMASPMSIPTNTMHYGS
The experiment in a line: radioactive assay (Reaction Biology Corp.), inhibition of PRMT4. As for the experimental part: as §3, §4

Read-outs that look alike come from different tables or passages of the source.

PRMT6, sequence (Q96LA8 whole entry, species assumed): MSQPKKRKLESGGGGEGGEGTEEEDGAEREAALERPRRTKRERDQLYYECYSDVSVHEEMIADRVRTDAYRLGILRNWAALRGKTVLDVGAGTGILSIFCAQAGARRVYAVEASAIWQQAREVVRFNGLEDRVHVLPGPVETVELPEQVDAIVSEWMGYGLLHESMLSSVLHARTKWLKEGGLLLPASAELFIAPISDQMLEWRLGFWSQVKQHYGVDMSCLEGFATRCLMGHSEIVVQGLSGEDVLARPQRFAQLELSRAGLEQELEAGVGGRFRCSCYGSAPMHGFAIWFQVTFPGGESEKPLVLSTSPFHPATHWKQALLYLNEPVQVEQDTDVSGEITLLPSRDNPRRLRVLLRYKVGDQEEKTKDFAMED
PRMT3, sequence (O60678 211-531): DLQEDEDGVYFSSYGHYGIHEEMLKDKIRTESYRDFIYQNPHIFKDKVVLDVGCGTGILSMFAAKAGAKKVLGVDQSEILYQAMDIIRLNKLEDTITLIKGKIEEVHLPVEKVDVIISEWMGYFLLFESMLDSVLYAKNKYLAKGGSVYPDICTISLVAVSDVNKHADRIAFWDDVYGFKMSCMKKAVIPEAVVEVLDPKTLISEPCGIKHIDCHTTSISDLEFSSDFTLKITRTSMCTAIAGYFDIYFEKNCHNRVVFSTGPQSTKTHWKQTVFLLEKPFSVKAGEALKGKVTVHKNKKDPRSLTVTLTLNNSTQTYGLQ
PRMT8, sequence (Q9NR22 whole entry, species assumed, the tested form may be a part): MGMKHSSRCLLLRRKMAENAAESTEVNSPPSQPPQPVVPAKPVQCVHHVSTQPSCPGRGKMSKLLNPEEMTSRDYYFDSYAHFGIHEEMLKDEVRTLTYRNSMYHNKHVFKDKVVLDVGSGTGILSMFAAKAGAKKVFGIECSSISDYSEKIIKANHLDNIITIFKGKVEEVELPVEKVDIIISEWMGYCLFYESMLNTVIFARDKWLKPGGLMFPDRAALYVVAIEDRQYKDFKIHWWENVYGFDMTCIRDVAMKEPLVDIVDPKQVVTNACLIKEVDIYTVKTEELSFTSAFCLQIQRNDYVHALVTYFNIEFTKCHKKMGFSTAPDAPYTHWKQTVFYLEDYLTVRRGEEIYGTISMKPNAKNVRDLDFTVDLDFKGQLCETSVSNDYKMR
T1 sequence (Q99873 whole entry, species assumed): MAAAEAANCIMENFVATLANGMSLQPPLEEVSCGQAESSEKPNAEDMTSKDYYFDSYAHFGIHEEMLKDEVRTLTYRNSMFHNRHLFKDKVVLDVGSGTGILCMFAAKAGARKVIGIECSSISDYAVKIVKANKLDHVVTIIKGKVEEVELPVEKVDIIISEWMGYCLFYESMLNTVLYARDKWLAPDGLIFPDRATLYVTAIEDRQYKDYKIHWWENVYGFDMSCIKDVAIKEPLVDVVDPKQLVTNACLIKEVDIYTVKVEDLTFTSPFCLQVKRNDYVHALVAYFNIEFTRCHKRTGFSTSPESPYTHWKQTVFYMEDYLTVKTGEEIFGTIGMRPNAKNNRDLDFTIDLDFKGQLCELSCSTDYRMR

A word on the inhibition: it is the drop in the measured response relative to a control, in per cent. One may read the IC50 as the concentration needed to halve the response being measured. Regarding `N=C(NCCCSC[C@H]1O[C@@H](n2cnc3c(NCCCc4ccccc4)ncnc32)[C@H](O)[C@@H]1O)NCC1CCC1` [Compound 1-89], the inhibition at 10 µM on PRMT1 came out at 80%; on PRMT6 it was 90%; at PRMT8, 85%; against PRMT3 it was 7%; at PRMT4 it was 44%. On PRMT1 (read-out: IC50 FOR PRMT1), the IC50 amounted to 0.59 ± 0.073 µM.

For `N=C(NCCCO)NCCCSC[C@H]1O[C@@H](n2cnc3c(NCCCc4ccccc4)ncnc32)[C@H](O)[C@@H]1O` [Compound 1-92], the inhibition at 10 µM at PRMT1 came out at 64%; on PRMT6 it was 84%; on PRMT8, 55%; on PRMT3 it was 10%; on PRMT4, 54%. In addition, the IC50 at PRMT1 (read-out: IC50 FOR PRMT1) was 0.59 ± 0.073 µM.

As for `N=C(NCCSC[C@H]1O[C@@H](n2cnc3c(N)ncnc32)[C@H](O)[C@@H]1O)Nc1ccccc1` [Compound 5b], the inhibition at 10 µM at PRMT1 stood at 73%; on PRMT6, 75%; on PRMT8, 66%; on PRMT3, 1%. The IC50 on PRMT1 (read-out: IC50[μM] | PRMT1) was 3 ± 0.16 µM.

Take `N=C(NCCCSC[C@H]1O[C@@H](n2cnc3c(N)ncnc32)[C@H](O)[C@@H]1O)NCc1ccccc1` [Compound 5e]: the inhibition at 10 µM came out at 95% against PRMT1; 98% on PRMT6; 97% on PRMT8; 61% against PRMT3; 97% at PRMT4. Further, at PRMT1 (read-out: IC50[μM] | PRMT1), the IC50 worked out at 0.21 ± 0.0066 µM.

For `N=C(NCCCSC[C@H]1O[C@@H](n2cnc3c(N)ncnc32)[C@H](O)[C@@H]1O)Nc1cccc(-c2ccoc2)c1` [Compound 6i], the inhibition at 10 µM came out at 95% at PRMT1; 95% on PRMT6; 98% at PRMT8; 46% at PRMT3; 100% on PRMT4.

For `N=C(NCCCSC[C@H]1O[C@@H](n2cnc3c(N)ncnc32)[C@H](O)[C@@H]1O)Nc1cccc(-c2cccc([N+](=O)[O-])c2)c1` [Compound 6p], the inhibition at 10 µM against PRMT1 stood at 93%; at PRMT6, 98%; on PRMT8 it was 100%; at PRMT3, 0%; at PRMT4, 100%.

Take `N=C(NCCCSC[C@H]1O[C@@H](n2cnc3c(N)ncnc32)[C@H](O)[C@@H]1O)Nc1cccc(-c2n[nH]cc2C(F)(F)F)c1` [Compound 6q]: the inhibition at 10 µM on PRMT1 amounted to 99%; at PRMT6, 98%; at PRMT8 it was 100%; against PRMT3 it was 60%; on PRMT4, 100%.

On to `Nc1ncnc2c1ncn2[C@@H]1O[C@H](CSCCNC(=O)NCCCc2ccccc2)[C@@H](O)[C@H]1O` [Compound 7b, 1-(2-((((2S,3S,4R,5R)-5-(6-amino-9H-purin-9-yl)-3,4-dihydroxytetrahydrofuran-2-yl)methyl)thio)ethyl)-3-(3-phenylpropyl)urea], for which the inhibition at 10 µM on PRMT1 is 13%; on PRMT6, 7%; at PRMT8 it was -4%; against PRMT3, 5%; at PRMT4, 49%.

For the compound `Nc1ncnc2c1ncn2[C@@H]1O[C@H](CSCCNC(=O)NCCc2ccccc2)[C@@H](O)[C@H]1O` [Compound 7c, 1-(2-((((2S,3S,4R,5R)-5-(6-amino-9H-purin-9-yl)-3,4-dihydroxytetrahydrofuran-2-yl)methyl)thio)ethyl)-3-phenethylurea], the inhibition at 10 µM at PRMT1 is 8%; on PRMT6, 22%; at PRMT8, -1%; on PRMT3 it was 6%; at PRMT4, 53%.

As to `Nc1ncnc2c1ncn2[C@@H]1O[C@H](CSCCNC(=O)NCc2ccc3cnccc3c2)[C@@H](O)[C@H]1O` [Compound 7e], the inhibition at 10 µM is 6% against PRMT1; 9% at PRMT6; -2% at PRMT8; 8% against PRMT3; 30% on PRMT4.

As to `CCNC(=O)NCCSC[C@H]1O[C@@H](n2cnc3c(N)ncnc32)[C@H](O)[C@@H]1O` [Compound 7g, 1-(2-((((2S,3S,4R,5R)-5-(6-amino-9H-purin-9-yl)-3,4-dihydroxytetrahydrofuran-2-yl)methyl)thio)ethyl)-3-ethylurea], the inhibition at 10 µM at PRMT1 amounted to 10%; on PRMT6 it was 3%; at PRMT8 it was 14%; against PRMT3, 4%; on PRMT4, 27%.

In the case of `Nc1ncnc2c1ncn2[C@@H]1O[C@H](CSCCNC(=O)NC2CCCCC2)[C@@H](O)[C@H]1O` [Compound 7i, 1-(2-((((2S,3S,4R,5R)-5-(6-amino-9H-purin-9-yl)-3,4-dihydroxytetrahydrofuran-2-yl)methyl)thio)ethyl)-3-cyclohexylurea], the inhibition at 10 µM on PRMT1 was 6%; at PRMT6, -12%; on PRMT8, -10%; at PRMT3, 2%; on PRMT4 it was 34%.

As to `Nc1ncnc2c1ncn2[C@@H]1O[C@H](CSCCNC(=O)Nc2ccccc2Br)[C@@H](O)[C@H]1O` [Compound 7m], the inhibition at 10 µM was found to be 10% against PRMT1; 11% at PRMT6; 13% on PRMT8; 55% against PRMT3; 81% at PRMT4.

In the case of `Nc1ncnc2c1ncn2[C@@H]1O[C@H](CSCCCNC(=O)NCc2ccc3c(c2)OCO3)[C@@H](O)[C@H]1O` [Compound 7o], the inhibition at 10 µM on PRMT1 came to 5%; at PRMT6 it was 89%; at PRMT8, 7%; against PRMT3, 5%; at PRMT4, 42%.

For `Nc1ncnc2c1ncn2[C@@H]1O[C@H](CSCCNCc2cccc(Br)c2)[C@@H](O)[C@H]1O` [Compound 9a], the inhibition at 10 µM amounted to 11% against PRMT1, 58% at PRMT6, 47% at PRMT8 and 8% against PRMT3.

Take `N=C(NCCCN(CCNC(=O)NCc1ccccc1)C[C@H]1O[C@@H](n2cnc3c(N)ncnc32)[C@H](O)[C@@H]1O)NC1CCCC1` [YD1289]: the “PRMT4 inhibition” value at PRMT4 is “selective and potent PRMT4 inhibitor”.

For `Nc1ncnc2c1ncn2[C@@H]1O[C@H](CN(CCCNCc2cccc(-c3ccc(Cl)cc3)c2)CCNC(=O)NCc2ccccc2)[C@@H](O)[C@H]1O` [YD1305], the “PRMT4 inhibition” value on PRMT4 is “potent and selective PRMT4 inhibitors”.

As for `Nc1ncnc2c1ncn2[C@@H]1O[C@H](CN(CCCNCc2cccc(Br)c2)CCNC(=O)NCc2ccccc2)[C@@H](O)[C@H]1O` [YD1349], the “PRMT4 inhibition” value at PRMT4 was “potent and selective PRMT4 inhibitors”.

Consider `N=C(NCCCSCC1CC(n2ccc3c(NCCCc4ccccc4)ncnc32)C(O)C1O)Nc1cccc(Br)c1` (stereo not drawn) [YD1375], for which, on PRMT1, the “PRMT1 inhibition” value is “inhibitory effect of YD1375 on PRMT1”.

These data come from patent US20260306527A1, “PRMT INHIBITOR COMPOUNDS AND THE USES THEREOF” (Purdue Research Foundation, priority 2023, published 2026).
